This note sets out measurements from ChEMBL document CHEMBL3217480, “Cytotoxic sugar analogues of an optimized novobiocin scaffold” (Medchemcomm, 2010).

The source made the active and inactive calls. The rule behind the calls is not given here.

Series [1] can be described thus: Inhibition of human SKBR3 cell proliferation. The series is classed as functional, cell-based. As to conditions: SK-BR-3.
A short description of series [2]: Antiproliferative activity against estrogen receptor-negative, Her2 overexpressing human SKBR3 cells after 72 hrs by MTS assay. The series is classed as functional, cell-based. As to conditions: SK-BR-3, 72 h.
Series [3] deals with MCF7. In words: Antiproliferative activity against estrogen receptor positive human MCF7 cells after 72 hrs by MTS assay. The series is classed as functional, cell-based. As to conditions: MCF7, 72 h. For orientation: Tetrazolium dyes change colour on reduction, which living cells bring about.
For series [4], the target named is Heat shock protein HSP 90-beta (Homo sapiens) (UniProt P08238). Briefly: Inhibition of HSP90-dependent client protein Akt degradation in human MCF7 cells after 24 hrs by Western blot analysis. The series is classed as cell-based. On the technique in general: A western blot detects proteins with antibodies after separation by electrophoresis.
Chain of Heat shock protein HSP 90-beta (Homo sapiens) (P08238 whole entry): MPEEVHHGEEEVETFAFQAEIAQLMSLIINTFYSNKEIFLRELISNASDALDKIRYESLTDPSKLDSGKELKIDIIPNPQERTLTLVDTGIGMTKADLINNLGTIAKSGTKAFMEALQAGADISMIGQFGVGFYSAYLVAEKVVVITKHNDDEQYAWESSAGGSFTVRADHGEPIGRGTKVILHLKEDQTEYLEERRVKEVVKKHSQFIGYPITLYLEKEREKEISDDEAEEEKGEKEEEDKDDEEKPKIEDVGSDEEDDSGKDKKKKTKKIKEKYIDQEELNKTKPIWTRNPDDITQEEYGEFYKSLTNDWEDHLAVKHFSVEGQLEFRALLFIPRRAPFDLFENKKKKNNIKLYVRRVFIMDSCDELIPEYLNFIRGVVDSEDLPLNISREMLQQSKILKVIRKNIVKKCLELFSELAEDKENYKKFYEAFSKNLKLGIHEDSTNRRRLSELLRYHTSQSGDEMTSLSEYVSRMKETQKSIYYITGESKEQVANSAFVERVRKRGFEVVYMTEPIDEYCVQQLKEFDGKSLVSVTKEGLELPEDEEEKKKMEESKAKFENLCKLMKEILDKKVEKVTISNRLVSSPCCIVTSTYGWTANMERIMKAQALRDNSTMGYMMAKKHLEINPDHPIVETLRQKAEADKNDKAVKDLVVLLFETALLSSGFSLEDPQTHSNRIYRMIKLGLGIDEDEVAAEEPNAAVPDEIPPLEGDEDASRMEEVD
The target is the same in series [5]. In words: Inhibition of HSP90-dependent client protein Raf degradation in human MCF7 cells after 24 hrs by Western blot analysis. The series is classed as cell-based.
The target is the same in series [6]. In words: Inhibition of HSP90-dependent client protein Her-2 degradation in human MCF7 cells after 24 hrs by Western blot analysis. The series is classed as cell-based.
Series [7] has as its system MCF7. Briefly: Effect on Hsp90 protein expression in human MCF7 cells at 0.5 to 25 uM after 24 hrs by Western blot analysis. The series is classed as functional, cell-based.
For series [8], the system named is MCF7. Briefly: Effect on actin expression in human MCF7 cells at 0.5 to 25 uM after 24 hrs by Western blot analysis. Format: ADME, cell-based. As to conditions: mcf7, 24 h.
In a further series the test system is HCT-116. Briefly: Inhibition of human HCT116 cell proliferation. Format: functional, cell-based.
The nature of series [9]: Inhibition of human PL45 cell proliferation. The series is classed as functional, cell-based.
In another series the test system is LNCaP. In words: Inhibition of human LNCAP cell proliferation. The series is classed as functional, cell-based.
The next series relates to PC-3. In words: Inhibition of human PC3 cell proliferation. Format: functional, cell-based.
A short description of series [10]: Inhibition of human Jurkat T cell cell proliferation. Format: functional, cell-based.

Take `COc1cccc(-c2cc(C(=O)Nc3cc4ccc(O[C@@H]5OC(C)(C)[C@H](OC)[C@@H](O)[C@H]5O)c(C)c4oc3=O)ccc2OC)c1`: the IC50 (commonly the point on the concentration scale where inhibition reaches its midpoint) in series [1] worked out at 7.5 µM; in series [2] it was 7.5 µM; in the series with MCF7 [3] it was 18.7 µM.
For the compound `COc1cccc(-c2cc(C(=O)Nc3cc4ccc(OC5CCCN(C(C)=O)C5)c(C)c4oc3=O)ccc2OC)c1` (centres undefined), the IC50 in series [2] came to 10.8 µM; with MCF7 [3], 9.18 µM.
For `COc1cccc(-c2cc(C(=O)Nc3cc4cc(OC)c(O[C@@H]5OC(C)(C)[C@H](OC)[C@@H](O)[C@H]5O)c(C)c4oc3=O)ccc2OC)c1`, the IC50 is 58.8 µM in [1], 58.8 µM in series [2] and over 100 µM in the series on MCF7 [3].
In the case of `COc1cccc(-c2cc(C(=O)Nc3cc4ccc(OC5CCN(C)CC5)c(C)c4oc3=O)ccc2OC)c1`, the inhibition entry in series [4], in series [5] and in series [6] was “Dose-dependent effect” each time. Besides, in the series with MCF7 [7], the result was inactive. Besides, the Activity entry with MCF7 [8] was “Non-toxic”.
Regarding `COc1cccc(-c2cc(C(=O)Nc3cc4cc(OC)c(OC(C)=O)c(C)c4oc3=O)ccc2OC)c1`, the IC50 in series [1] came to 5.72 µM; with HCT-116 it was 0.52 µM; in series [9], 4.1 µM; in the series on LNCaP, 0.42 µM; in the series with PC-3, 0.97 µM; in [10] it was 0.42 µM. This compound registered an IC50 with MCF7 [3] of 1.5 µM.
As for `COc1cccc(-c2cc(C(=O)Nc3cc4ccc(O[C@H]5C[C@H](O)CCO5)c(C)c4oc3=O)ccc2OC)c1`, the results for the IC50 (in [2]; in the series on MCF7 [3]) were 9.28 µM and 11.2 µM, respectively.
For `CNC(=O)Oc1ccc2cc(NC(=O)c3ccc(OC)c(-c4cccc(OC)c4)c3)c(=O)oc2c1C`, the inhibition result in series [4], in series [5] and in series [6] was “Dose-dependent effect” in each case. In the series on MCF7 [7], the result was inactive. Further, the Activity result with MCF7 [8] is “Non-toxic”.
For `COc1cccc(-c2cc(C(=O)Nc3cc4ccc(O[C@@H]5CCC[C@@H](O)[C@H]5O)c(C)c4oc3=O)ccc2OC)c1`, the IC50 (in [2]; with MCF7 [3]) was over 100 µM each time.
